From patent publication US20250122181A1, “BENZIMIDAZOLES AS MODULATORS OF IL-17” (Janssen Pharmaceutica NV, priority 2021, published 2025) come the findings set out here.

Where only a bound is given, the exact number is not on record here.

The test system of one test is IL-17A-induced G-CSF production in human normal keratinocyte (NHK). The test can be described thus: NHK Assay: IL-17A-induced G-CSF production in human normal keratinocyte. The class given is cell-based. The conditions noted are these: Homo sapiens, Keratinocyte, 24 h, IL-17A 5 ng/mL, simple average if tested more than once. The method, then:
IL-17A acts directly on keratinocytes through binding to dimeric receptor IL-17RA/RC and drives the production of a number of inflammatory mediators known to be elevated in psoriasis lesional tissue. IL-17A small molecule inhibitors that block the IL-17A to interact with IL-17R would inhibit the IL-17A signaling in its targeted cells such as keratinocytes. The compound functional activity is evaluated for its impact on IL-17A-induced G-CSF production in human normal keratinocyte (NHK).
Adult normal human keratinocytes are cultured in keratinocyte growth medium (Lonza) in a flask till reaching ˜90% confluence, then cells are transferred to a 384-well plate at density of 3000-4000 cell/well. Recombinant human IL-17A (Gibco PHC9174) is pre-incubated with titrated compound or DMSO for 1 h at rt then added to the cell culture plate. The final concentration of IL-17A is 5 ng/mL and DMSO is 0.2%, in the culture containing 5% FBS. Cells are cultured/treated for 24 h at 37° C. Supernatants are collected and G-CSF production is measured through HTRF technology using Human G-CSF Kit (CisBio). G-CSF concentration was extrapolated from the standard curve and IC50 is determined using GraphPad Prism. Cell viability is also evaluated using CellTiter-Glo kit (Promega) and effect of compound on cell viability is compared to DMSO control.
`Cc1nonc1C(=O)N[C@H](c1nc2ccc(CN3C[C@@H](C(F)(F)F)NC3=O)c(F)c2[nH]1)[C@@H](C)O[C@H](C)C(F)(F)F` [Example 92, N-[(1R,2R)-1-[7-Fluoro-6-[[(4S)-2-oxo-4-(trifluoromethyl)imidazolidin-1-yl]methyl]-1H-benzimidazol-2-yl]-2-[(1R)-2,2,2-trifluoro-1-methyl-ethoxy]propyl]-4-methyl-1,2,5-oxadiazole-3-carboxamide]: the IC50 was below 50 nM. Turning to `[2H]C1([2H])N([C@@H](c2ccc3nc([C@H](COC(C)(C)C(F)(F)F)NC(=O)c4nonc4C4CC4)[nH]c3c2)C2CC2)C(=O)NCC1(F)F` [Example 76, 4-Cyclopropyl-N—((R)-1-(5-((R)-cyclopropyl(5,5-difluoro-2-oxotetrahydropyrimidin-1(2H)-yl-6,6-d2)methyl)-1H-benzo[d]imidazol-2-yl)-2-((1,1,1-trifluoro-2-methylpropan-2-yl)oxy)ethyl)-1,2,5-oxadiazole-3-carboxamide], the IC50 was below 50 nM. In turn, `[2H]C1([2H])NC(=O)N([C@@H](c2ccc3[nH]c([C@H](COC(C)(C)C(F)(F)F)NC(=O)c4nonc4C4CC4)nc3c2)C2CC2)CC1(F)F` [Example 82, 4-Cyclopropyl-N-[(1R)-1-[5-[(R)-cyclopropyl-(4,4-dideuterio-5,5-difluoro-2-oxo-hexahydropyrimidin-1-yl)methyl]-1H-benzimidazol-2-yl]-2-(2,2,2-trifluoro-1,1-dimethyl-ethoxy)ethyl]-1,2,5-oxadiazole-3-carboxamide] gave an IC50 below 50 nM. The same measure, in the same setting: under `[2H]C1([2H])NC(=O)N([C@@H](c2ccc3[nH]c([C@H](COC(C)(C)C(F)(F)F)NC(=O)c4nonc4C4CC4)nc3c2)C2CC2)C([2H])([2H])C1(F)F` [Example 78, 4-Cyclopropyl-N—((R)-1-(5-((R)-cyclopropyl(5,5-difluoro-2-oxotetrahydropyrimidin-1(2H)-yl-4,4,6,6-d4)methyl)-1H-benzo[d]imidazol-2-yl)-2-((1,1,1-trifluoro-2-methylpropan-2-yl)oxy)ethyl)-1,2,5-oxadiazole-3-carboxamide] stands below 50 nM; under `C[C@@H](O[C@H](C)C(F)(F)F)[C@H](NC(=O)c1nonc1C1CC1)c1nc2ccc(CN3C[C@@H](C(F)(F)F)NC3=O)c(F)c2[nH]1` [Example 93, 4-Cyclopropyl-N-[(1R,2R)-1-[7-fluoro-6-[[(4S)-2-oxo-4-(trifluoromethyl)imidazolidin-1-yl]methyl]-1H-benzimidazol-2-yl]-2-[(1R)-2,2,2-trifluoro-1-methyl-ethoxy]propyl]-1,2,5-oxadiazole-3-carboxamide], below 50 nM; under `Cc1nonc1C(=O)N[C@H](c1nc2c(F)cc([C@@H](C3CC3)N3C[C@@H](C(F)(F)F)NC3=O)cc2[nH]1)[C@@H](C)O[C@H](C)C(F)(F)F` [Example 86, N-[(1R,2R)-1-[6-[(R)-Cyclopropyl-[(4S)-2-oxo-4-(trifluoromethyl)imidazolidin-1-yl]methyl]-4-fluoro-1H-benzimidazol-2-yl]-2-[(1R)-2,2,2-trifluoro-1-methyl-ethoxy]propyl]-4-methyl-1,2,5-oxadiazole-3-carboxamide], below 50 nM. In turn, `COC[C@H](c1ccc2[nH]c([C@@H](NC(=O)c3nonc3C3CC3)[C@@H](C)OC3CC3)nc2c1)N1C[C@@H](C(F)(F)F)NC1=O` [Example 42, N-((1R,2R)-2-Cyclopropoxy-1-(5-((S)-2-methoxy-1-((S)-2-oxo-4-(trifluoromethyl)imidazolidin-1-yl)ethyl)-1H-benzo[d]imidazol-2-yl)propyl)-4-cyclopropyl-1,2,5-oxadiazole-3-carboxamide] displayed an IC50 below 50 nM. In turn, `C[C@H](O[C@H](C)[C@H](NC(=O)c1nonc1C1CC1)c1nc2cc([C@@H](COC3CC3)N3CC(F)(F)CNC3=O)ccc2[nH]1)C(F)(F)F` [Example 67, N-((1R,2R)-1-(5-((S)-2-Cyclopropoxy-1-(5,5-difluoro-2-oxotetrahydropyrimidin-1(2H)-yl)ethyl)-1H-benzo[d]imidazol-2-yl)-2-(((S)-1,1,1-trifluoropropan-2-yl)oxy)propyl)-4-cyclopropyl-1,2,5-oxadiazole-3-carboxamide] gave an IC50 below 50 nM. The molecule `CO[C@H](CC(F)(F)F)[C@@H](NC(=O)c1nonc1C1CC1)c1nc2cc(CN3C[C@@H](C(F)(F)F)NC3=O)ccc2[nH]1` (single isomer, unassigned) [Example 45, 4-Cyclopropyl-N-((1S*,2R*)-4,4,4-trifluoro-2-methoxy--(5-(((S)-2-oxo-4-(trifluoromethyl)imidazolidin-1-yl)methyl)-1H-benzo[d]imidazol-2-yl)butyl)-1,2,5-oxadiazole-3-carboxamide] had an IC50 of 50 to 100 nM. Take `[2H]C1([2H])N([C@@H](c2ccc3nc([C@H](COC(C)(C)C(F)(F)F)NC(=O)c4nonc4C)[nH]c3c2)C2CC2)C(=O)NCC1(F)F` [Example 77, N—((R)-1-(5-((R)-Cyclopropyl(5,5-difluoro-2-oxotetrahydropyrimidin-1(2H)-yl-6,6-d2)methyl)-1H-benzo[d]imidazol-2-yl)-2-((1,1,1-trifluoro-2-methylpropan-2-yl)oxy)ethyl)-4-methyl-1,2,5-oxadiazole-3-carboxamide]: the IC50 is below 50 nM. On the same count and under the same terms, as for `COCC(c1ccc2[nH]c([C@H](COC(C)(C)C(F)(F)F)NC(=O)c3nonc3C)nc2c1)N1C[C@@](C)(C(F)(F)F)NC1=O` (single isomer, unassigned) [Example 63, N—((R)-1-(5-((R*)-2-Methoxy-1-((S)-4-methyl-2-oxo-4-(trifluoromethyl)imidazolidin-1-yl)ethyl)-1H-benzo[d]imidazol-2-yl)-2-((1,1,1-trifluoro-2-methylpropan-2-yl)oxy)ethyl)-4-methyl-1,2,5-oxadiazole-3-carboxamide], the figure is below 50 nM; as for `Cc1nonc1C(=O)N[C@H](c1nc2cc([C@@H](COC3CC3)N3CC(F)(F)CNC3=O)ccc2[nH]1)[C@@H](C)O[C@@H](C)C(F)(F)F` [Example 66, N-((1R,2R)-1-(5-((S)-2-Cyclopropoxy-1-(5,5-difluoro-2-oxotetrahydropyrimidin-1(2H)-yl)ethyl)-1H-benzo[d]imidazol-2-yl)-2-(((S)-1,1,1-trifluoropropan-2-yl)oxy)propyl)-4-methyl-1,2,5-oxadiazole-3-carboxamide], below 50 nM; as for `CO[C@@H](CC(F)(F)F)[C@H](NC(=O)c1nonc1C1CC1)c1nc2cc(CN3C[C@@H](C(F)(F)F)NC3=O)ccc2[nH]1` (relative stereo) [Example 46, 4-Cyclopropyl-N-((1R*,2S*)-4,4,4-trifluoro-2-methoxy-1-(5-(((S)-2-oxo-4-(trifluoromethyl)imidazolidin-1-yl)methyl)-1H-benzo[d]imidazol-2-yl)butyl)-1,2,5-oxadiazole-3-carboxamide], below 50 nM.

The molecule `CO[C@H](CC(F)(F)F)[C@H](NC(=O)c1nonc1C)c1nc2cc(CN3C[C@@H](C(F)(F)F)NC3=O)ccc2[nH]1` (relative stereo) [Example 90, 4-Methyl-N-((1R*,2R*)-4,4,4-trifluoro-2-methoxy-1-(5-(((S)-2-oxo-4-(trifluoromethyl)imidazolidin-1-yl)methyl)-1H-benzo[d]imidazol-2-yl)butyl)-1,2,5-oxadiazole-3-carboxamide] displayed an IC50 above 100 nM. Still for that read-out and setting: as for `[2H]C1([2H])NC(=O)N([C@@H](c2ccc3[nH]c([C@H](COC(C)(C)C(F)(F)F)NC(=O)c4nonc4C)nc3c2)C2CC2)C([2H])([2H])C1(F)F` [Example 80, N—((R)-1-(5-((R)-Cyclopropyl(5,5-difluoro-2-oxotetrahydropyrimidin-1(2H)-yl-4,4,6,6-d4)methyl)-1H-benzo[d]imidazol-2-yl)-2-((1,1,1-trifluoro-2-methylpropan-2-yl)oxy)ethyl)-4-methyl-1,2,5-oxadiazole-3-carboxamide], the figure is below 50 nM.

Staying with this test, now noted: IL-17A 5 ng/mL, 24 h, simple average if tested more than once.
Consider `COCC(c1ccc2[nH]c([C@H](COC(C)(C)C(F)(F)F)NC(=O)c3nonc3C)nc2c1)N1C[C@@](C)(C(F)(F)F)NC1=O` (single isomer, unassigned) [Example 64, N—((R)-1-(5-((S*)-2-Methoxy-1-((S)-4-methyl-2-oxo-4-(trifluoromethyl)imidazolidin-1-yl)ethyl)-1H-benzo[d]imidazol-2-yl)-2-((1,1,1-trifluoro-2-methylpropan-2-yl)oxy)ethyl)-4-methyl-1,2,5-oxadiazole-3-carboxamide], for which the IC50 was above 100 nM.

Regarding `Cc1nonc1C(=O)N[C@@H](COC(C)(C)C(F)(F)F)c1nc2cc([C@@H](C3CC3)N3CC(CC(F)(F)F)NC3=O)ccc2[nH]1` (single isomer, unassigned) [Example 89, N—((R)-1-(5-((R)-Cyclopropyl((S*)-2-oxo-4-(2,2,2-trifluoroethyl)imidazolidin-1-yl)methyl)-1H-benzo[d]imidazol-2-yl)-2-((1,1,1-trifluoro-2-methylpropan-2-yl)oxy)ethyl)-4-methyl-1,2,5-oxadiazole-3-carboxamide], the IC50 is above 100 nM.
